Starred links: 1 amine or outer side, 2 acyl side, 3 side chain; linkers in the order of their positions; H or OH if unused. Positions of bridges follow the written chain, without caps; N, C: chain ends. Non-standard residues stand in square brackets, D forms with d. Residues, ends and D or L forms follow the SMILES beside them. Groups on a side chain read outwards from the residue. *: point of attachment. Trp(1-Me) = Cn1cc(C[C@H](N)C(=O)O)c2ccccc21; C18 diacid = O=C(O)CCCCCCCCCCCCCCCCC(=O)*; C16 diacid = O=C(O)CCCCCCCCCCCCCCC(=O)*; γGlu = O=C(O)[C@H](CCC(=O)[*:2])N[*:1]; AEEA = NCCOCCOCC(=O)O; Sar = CNCC(=O)O
system: classical complement pathway; experiment: In vitro haemolysis assay (inhibition of classical complement pathway); format: cell-based, human; conditions: human serum, sensitized sheep red blood cells; Table 3, given as upper bounds; read-out: IC50, inhibition of hemolysis
Method in brief: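 Compound dilutions preincubated 15 min at room temperature with diluted human serum (titrated per batch for 70-90% maximal haemolysis), then antibody-sensitized sheep RBC (10^7/well) added for 30 min at 37 °C in Tris/casein buffer, pH 7.4. Stopped with EDTA; haemolysis read at 405 nm; IC50 by 4PL fit.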

SMILES | IC50
CC[C@H](C)[C@@H]1NC(=O)[C@@H](NC(=O)CN(C)C(=O)[C@H](CCC(=O)O)NC(=O)[C@H](CO)NC(C)=O)CSSC[C@@H](C(=O)N[C@H](C(=O)N[C@@H](CCC(=O)O)C(=O)N[C@@H](C)C(N)=O)[C@@H](C)O)NC(=O)[C@H](CCCNC(=N)N)NC(=O)[C@H](Cc2c[nH]cn2)NC(=O)[C@H](CCC(=O)O)NC(=O)CNC(=O)[C@H](Cc2c[nH]c3ccccc23)NC(=O)[C@H](CC(=O)O)NC(=O)[C@H](CCC(N)=O)NC(=O)[C@H](Cc2cn(C)c3ccccc23)NC1=O [Compound 82] (Ac-SE[Sar]CI[Trp(1-Me)]QDWGEHRCTEA-NH2; disulfide 4-14) | < 100 nM
CC[C@H](C)[C@@H]1NC(=O)[C@@H](NC(=O)[C@H](Cc2ccccc2)NC(=O)[C@H](CCC(=O)O)NC(=O)[C@H](CO)NC(C)=O)CSSC[C@@H](C(=O)N(C)CC(=O)N[C@@H](CCC(=O)O)C(=O)N[C@@H](C)C(N)=O)NC(=O)[C@H](CCCNC(=N)N)NC(=O)[C@H](Cc2c[nH]cn2)NC(=O)[C@H](CCC(=O)O)NC(=O)CNC(=O)[C@H](Cc2c[nH]c3ccccc23)NC(=O)[C@H](CCC(=O)O)NC(=O)[C@H](CCC(N)=O)NC(=O)[C@H](Cc2cn(C)c3ccccc23)NC1=O [Compound 83] (Ac-SEFCI[Trp(1-Me)]QEWGEHRC[Sar]EA-NH2; disulfide 4-14) | < 100 nM
CC[C@H](C)[C@@H]1NC(=O)[C@@H](NC(=O)[C@H](Cc2ccccc2)NC(=O)[C@H](CCC(=O)O)NC(C)=O)CSSC[C@@H](C(=O)N[C@@H](CCC(=O)O)C(=O)N[C@@H](CO)C(N)=O)NC(=O)[C@H](CCCNC(=N)N)NC(=O)[C@H](Cc2c[nH]cn2)NC(=O)[C@H](CCC(=O)O)NC(=O)CNC(=O)[C@H](Cc2c[nH]c3ccccc23)NC(=O)[C@H](CC(=O)O)NC(=O)[C@H](CCC(N)=O)NC(=O)[C@H](Cc2cn(C)c3ccccc23)NC1=O [Compound 85] (Ac-EFCI[Trp(1-Me)]QDWGEHRCES-NH2; disulfide 3-13) | < 100 nM
CC[C@H](C)[C@@H]1NC(=O)[C@@H](NC(=O)[C@H](Cc2ccccc2)NC(=O)[C@H](CCC(=O)O)NC(=O)[C@H](CO)NC(C)=O)CSSC[C@@H](C(=O)N(C)CC(=O)N[C@@H](CCC(=O)O)C(=O)N[C@@H](C)C(N)=O)NC(=O)[C@H](CCCCN)NC(=O)[C@H](Cc2c[nH]cn2)NC(=O)[C@H](CCC(=O)O)NC(=O)CNC(=O)[C@H](Cc2c[nH]c3ccccc23)NC(=O)[C@H](CC(=O)O)NC(=O)[C@H](CCC(N)=O)NC(=O)[C@H](Cc2cn(C)c3ccccc23)NC1=O [Compound 86] (Ac-SEFCI[Trp(1-Me)]QDWGEHKC[Sar]EA-NH2; disulfide 4-14) | < 100 nM
CC[C@H](C)[C@@H]1NC(=O)[C@@H](NC(=O)[C@H](Cc2ccccc2)NC(=O)[C@H](CCC(=O)O)NC(=O)CNC(C)=O)CSSC[C@@H](C(=O)N(C)CC(=O)N[C@@H](CCC(=O)O)C(=O)N[C@@H](C)C(N)=O)NC(=O)[C@H](CCCNC(=N)N)NC(=O)[C@H](Cc2c[nH]cn2)NC(=O)[C@H](CCC(=O)O)NC(=O)CNC(=O)[C@H](Cc2c[nH]c3ccccc23)NC(=O)[C@H](CC(=O)O)NC(=O)[C@H](CCC(N)=O)NC(=O)[C@H](Cc2cn(C)c3ccccc23)NC1=O [Compound 87] (Ac-GEFCI[Trp(1-Me)]QDWGEHRC[Sar]EA-NH2; disulfide 4-14) | < 100 nM
CC[C@H](C)[C@@H]1NC(=O)[C@@H](NC(=O)CN(C)C(=O)[C@H](CCC(=O)O)NC(=O)CNC(C)=O)CSSC[C@@H](C(=O)N[C@H](C(=O)N[C@@H](CCC(=O)O)C(=O)N[C@@H](C)C(N)=O)[C@@H](C)O)NC(=O)[C@H](CCCNC(=N)N)NC(=O)[C@H](Cc2c[nH]cn2)NC(=O)[C@H](CCC(=O)O)NC(=O)CNC(=O)[C@H](Cc2c[nH]c3ccccc23)NC(=O)[C@H](CC(=O)O)NC(=O)[C@H](CCC(N)=O)NC(=O)[C@H](Cc2cn(C)c3ccccc23)NC1=O [Compound 88] (Ac-GE[Sar]CI[Trp(1-Me)]QDWGEHRCTEA-NH2; disulfide 4-14) | < 100 nM
CC[C@H](C)[C@@H]1NC(=O)[C@@H](NC(=O)CN(C)C(=O)[C@H](CCC(=O)O)NC(=O)[C@H](CO)NC(C)=O)CSSC[C@@H](C(=O)N[C@H](C(=O)N[C@@H](CCC(=O)O)C(=O)N[C@@H](C)C(N)=O)[C@@H](C)O)NC(=O)[C@H](CCCNC(=N)N)NC(=O)[C@H](Cc2c[nH]cn2)NC(=O)[C@H](CCC(=O)O)NC(=O)CN(C)C(=O)[C@H](Cc2c[nH]c3ccccc23)NC(=O)[C@H](CCC(=O)O)NC(=O)[C@H](CCC(N)=O)NC(=O)[C@H](Cc2cn(C)c3ccccc23)NC1=O [Compound 89, Ac-SE[Sar]C(1)I[1-Me-Trp]QEW[Sar]EHRC(1)TEA-NH2] (Ac-SE[Sar]CI[Trp(1-Me)]QEW[Sar]EHRCTEA-NH2; disulfide 4-14) | < 100 nM
CC[C@H](C)[C@@H]1NC(=O)[C@@H](NC(=O)CN(C)C(=O)[C@H](CCC(=O)O)NC(=O)[C@H](CO)NC(C)=O)CSSC[C@@H](C(=O)N(C)CC(=O)N[C@@H](CCC(=O)O)C(=O)N[C@@H](C)C(N)=O)NC(=O)[C@H](CCCNC(=N)N)NC(=O)[C@H](Cc2c[nH]cn2)NC(=O)[C@H](CCC(=O)O)NC(=O)CNC(=O)[C@H](Cc2c[nH]c3ccccc23)NC(=O)[C@H](CCC(=O)O)NC(=O)[C@H](CCC(N)=O)NC(=O)[C@H](Cc2cn(C)c3ccccc23)NC1=O [Compound 90] (Ac-SE[Sar]CI[Trp(1-Me)]QEWGEHRC[Sar]EA-NH2; disulfide 4-14) | < 250 nM
CC[C@H](C)[C@@H]1NC(=O)[C@@H](NC(=O)CN(C)C(=O)[C@H](N)Cc2ccc(O)cc2)CSSC[C@@H](C(=O)N[C@H](C(=O)N[C@@H](CCC(=O)O)C(=O)N[C@@H](C)C(N)=O)[C@@H](C)O)NC(=O)[C@H](CCCNC(=N)N)NC(=O)[C@H](Cc2c[nH]cn2)NC(=O)[C@H](CCC(=O)O)NC(=O)CNC(=O)[C@H](Cc2c[nH]c3ccccc23)NC(=O)[C@H](CC(=O)O)NC(=O)[C@H](CCC(N)=O)NC(=O)[C@H](Cc2cn(C)c3ccccc23)NC1=O [Compound 91] (H-[dY][Sar]CI[Trp(1-Me)]QDWGEHRCTEA-NH2; disulfide 3-13) | < 100 nM
CC[C@H](C)[C@H](NC(C)=O)C(=O)N[C@H]1CSSC[C@@H](C(=O)N[C@H](C(=O)N[C@@H](CCC(=O)O)C(=O)NCC(=O)N[C@@H](CCCCNC(=O)CC[C@H](NC(=O)CCCCCCCCCCCCCCC(=O)O)C(=O)O)C(N)=O)[C@@H](C)O)NC(=O)[C@H](CCCNC(=N)N)NC(=O)[C@H](Cc2c[nH]cn2)NC(=O)[C@H](CCC(=O)O)NC(=O)CNC(=O)[C@H](Cc2c[nH]c3ccccc23)NC(=O)[C@H](CC(=O)O)NC(=O)[C@H](CCC(N)=O)NC(=O)[C@H](Cc2c[nH]c3ccccc23)NC(=O)[C@H]([C@@H](C)CC)NC1=O [Compound 92] (Ac-ICIWQDWGEHRCTEGK([γGlu-C16 diacid])-NH2; disulfide 2-12) | < 1000 nM
CC[C@H](C)[C@H](NC(C)=O)C(=O)N[C@H]1CSSC[C@@H](C(=O)N[C@H](C(=O)N[C@@H](CCC(=O)O)C(=O)NCC(=O)N[C@@H](CCCCNC(=O)COCCOCCNC(=O)COCCOCCNC(=O)CC[C@H](NC(=O)CCCCCCCCCCCCCCC(=O)O)C(=O)O)C(N)=O)[C@@H](C)O)NC(=O)[C@H](CCCNC(=N)N)NC(=O)[C@H](Cc2c[nH]cn2)NC(=O)[C@H](CCC(=O)O)NC(=O)CNC(=O)[C@H](Cc2c[nH]c3ccccc23)NC(=O)[C@H](CC(=O)O)NC(=O)[C@H](CCC(N)=O)NC(=O)[C@H](Cc2c[nH]c3ccccc23)NC(=O)[C@H]([C@@H](C)CC)NC1=O [Compound 93] (Ac-ICIWQDWGEHRCTEGK([AEEA-AEEA-γGlu-C16 diacid])-NH2; disulfide 2-12) | < 500 nM
CC[C@H](C)[C@H](NC(C)=O)C(=O)N[C@H]1CSSC[C@@H](C(=O)N[C@H](C(=O)N[C@@H](CCC(=O)O)C(=O)NCC(=O)N[C@@H](CCC(=O)O)C(=O)N[C@@H](CCCCNC(=O)COCCOCCNC(=O)COCCOCCNC(=O)CC[C@H](NC(=O)CCCCCCCCCCCCCCC(=O)O)C(=O)O)C(N)=O)[C@@H](C)O)NC(=O)[C@H](CCCNC(=N)N)NC(=O)[C@H](Cc2c[nH]cn2)NC(=O)[C@H](CCC(=O)O)NC(=O)CNC(=O)[C@H](Cc2c[nH]c3ccccc23)NC(=O)[C@H](CC(=O)O)NC(=O)[C@H](CCC(N)=O)NC(=O)[C@H](Cc2c[nH]c3ccccc23)NC(=O)[C@H]([C@@H](C)CC)NC1=O [Compound 94] (Ac-ICIWQDWGEHRCTEGEK([AEEA-AEEA-γGlu-C16 diacid])-NH2; disulfide 2-12) | < 500 nM
CC[C@H](C)[C@H](NC(C)=O)C(=O)N[C@H]1CSSC[C@@H](C(=O)N[C@H](C(=O)N[C@@H](CCC(=O)O)C(=O)NCC(=O)N[C@@H](CCCCNC(=O)COCCOCCNC(=O)COCCOCCNC(=O)CC[C@H](NC(=O)CCCCCCCCCCCCCCCCC(=O)O)C(=O)O)C(N)=O)[C@@H](C)O)NC(=O)[C@H](CCCNC(=N)N)NC(=O)[C@H](Cc2c[nH]cn2)NC(=O)[C@H](CCC(=O)O)NC(=O)CNC(=O)[C@H](Cc2c[nH]c3ccccc23)NC(=O)[C@H](CC(=O)O)NC(=O)[C@H](CCC(N)=O)NC(=O)[C@H](Cc2c[nH]c3ccccc23)NC(=O)[C@H]([C@@H](C)CC)NC1=O [Compound 96] (Ac-ICIWQDWGEHRCTEGK([AEEA-AEEA-γGlu-C18 diacid])-NH2; disulfide 2-12) | < 1000 nM

same assay, conditions: read-out: IC50, inhibition of hemolysis

SMILES | IC50
CC[C@H](C)[C@@H]1NC(=O)[C@@H](NC(=O)[C@H](Cc2ccccc2)NC(=O)[C@H](CCC(=O)O)NC(=O)[C@H](CO)NC(C)=O)CSSC[C@@H](C(=O)N[C@@H](CO)C(=O)N[C@@H](CCC(=O)O)C(=O)N[C@@H](C)C(N)=O)NC(=O)[C@H](CCCNC(=N)N)NC(=O)[C@H](Cc2c[nH]cn2)NC(=O)[C@H](CCC(=O)O)NC(=O)CNC(=O)[C@H](Cc2c[nH]c3ccccc23)NC(=O)[C@H](CC(=O)O)NC(=O)[C@H](CCC(N)=O)NC(=O)[C@H](Cc2cn(C)c3ccccc23)NC1=O [Compound 84] (Ac-SEFCI[Trp(1-Me)]QDWGEHRCSEA-NH2; disulfide 4-14) | < 100 nM

Reference: patent publication US11965039B2, “Compstatin analogues and their medical uses” (priority 2018, dated 2024)
